Data published in US10407467B2, “Polymyxin derivatives and their use in combination therapy together with different antibiotics” (priority 2013, dated 2019).
Counter-ions that a name gives are not always drawn. Numbered stars: 1 amine (or outer) side, 2 acyl side, 3 side chain; on linkers, the order of the positions; unused ones are H or OH. Bridge positions count the residues as written; N and C are the ends. Square brackets hold non-standard residues; d marks the D form. Peptide text beside a SMILES is read from it. * marks the point of attachment. ξ: configuration not given here. Acetyl(cis-4-NH-cyclohexyl) = O=C(C[C@H]1CC[C@@H](N[*:1])CC1)[*:2]; ξHexahydromandeloyl = O=C(C(O)C1CCCCC1)*; ξβ3hGly(cHex) = NC(CC(=O)*)C1CCCCC1; X8 = N[C@@H]1CC[C@H](C(=O)*)C1; Thr(3ξ) = CC(O)[C@H](N)C(=O)O; X5 = O=C(C[C@@H]1CCCCN1)*; Dab = NCC[C@H](N)C(=O)O; X4 = NC1CCCC1C(=O)*

Columns and labels:
Assay in all cases: MIC, compound in combination with a second agent (broth microdilution)
Format in all cases: cell-based
Acinetobacter baumannii = conditions: 1:1 (wt:wt) combination with Rifampicin
How it was run: (§1)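 MIC = combined concentration of test compound plus partner agent, mixed at equal mass (1:1 w/w, salt form as used). Up to four strains per species; colonies adjusted to 0.5 McFarland. Run in duplicate; >2-fold disagreement invalidates the run.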

Escherichia coli = conditions: 1:1 (wt:wt) combination with Rifampicin
How it was run: as §1

Klebsiella pneumoniae = conditions: 1:1 (wt:wt) combination with Rifampicin; for MIC K. pneumoniae ATCC 4352: strain ATCC 4352
How it was run: as §1

Pseudomonas aeruginosa = conditions: 1:1 (wt:wt) combination with Rifampicin
How it was run: as §1

[1] = MIC = total drug concentration, strain ATCC BAA-747
[2] = MIC = total drug concentration, strain CCUG57249
[3] = MIC = total drug concentration, strain NCTC 13423
[4] = MIC = total drug concentration, strain NCTC 13424
[5] = MIC = total drug concentration, strain ATCC25922
[6] = MIC = total drug concentration, strain ATCC-BAA-2146
[7] = MIC = total drug concentration, strain CCUG-59348
[8] = MIC = total drug concentration, strain NCTC 13438
[9] = MIC = total drug concentration, strain ATCC 27853
[10] = MIC = total drug concentration, strain ATCC CRM-9027
[11] = MIC = total drug concentration, strain ATCC-47
[12] = MIC = total drug concentration, strain CCUG 59626
[13] = MIC is total drug concentration
[14] = MIC = total drug concentration, strain NCTC9001

Row | Structure (SMILES) | MIC A. baumannii ATCC BAA-747 (Acinetobacter baumannii; [1]) | MIC A. baumannii CCUG57249 (Acinetobacter baumannii; [2]) | MIC A. baumannii NCTC 13423 (Acinetobacter baumannii; [3]) | MIC A. baumannii NCTC 13424 (Acinetobacter baumannii; [4]) | MIC E. coli ATCC25922 (Escherichia coli; [5]) | MIC K. pneumoniae ATCC-BAA-2146 (Klebsiella pneumoniae; [6]) | MIC K. pneumoniae CCUG-59348 (Klebsiella pneumoniae; [7]) | MIC K. pneumoniae NCTC 13438 (Klebsiella pneumoniae; [8]) | MIC P. aeruginosa ATCC 27853 (Pseudomonas aeruginosa; [9]) | MIC P. aeruginosa ATCC CRM-9027 (Pseudomonas aeruginosa; [10]) | MIC P. aeruginosa ATCC-47 (Pseudomonas aeruginosa; [11]) | MIC P. aeruginosa CCUG 59626 (Pseudomonas aeruginosa; [12]) | MIC E. coli NCTC9001 (Escherichia coli; [14]) | MIC K. pneumoniae ATCC 4352 (Klebsiella pneumoniae; MIC = total drug concentration) | other results
1 | CC(C)C[C@@H]1NC(=O)[C@@H](CC(C)C)NC(=O)[C@H](CCN)NC(=O)[C@@H](NC(=O)[C@H](CCN)NC(=O)[C@@H](NC(=O)CC(N)C2CCCCC2)C(C)O)CCNC(=O)[C@H](C(C)O)NC(=O)[C@H](CCN)NC(=O)[C@H](CCN)NC1=O (stereo partly drawn) [Example 30, 3(R,S)-3-Amino-3-cyclohexane-propanoyl]Polymyxin E nonapeptide, TFA salt] ({ξβ3hGly(cHex)}-[Thr(3ξ)][Dab][Dab][Dab][dL]L[Dab][Dab][Thr(3ξ)]; lactam 3-C) | ≤0.06 micrograms/mL | 0.125 micrograms/mL | ≤0.06 micrograms/mL | <0.06 micrograms/mL | 0.25 micrograms/mL | 0.25 micrograms/mL | 2 micrograms/mL | 0.5 micrograms/mL | 0.25 micrograms/mL | 0.125 micrograms/mL | 0.125 micrograms/mL | 0.25 micrograms/mL |  |  | 
2 | CC(C)C[C@@H]1NC(=O)[C@@H](Cc2ccccc2)NC(=O)[C@H](CCN)NC(=O)[C@@H](NC(=O)[C@H](CCN)NC(=O)[C@@H](NC(=O)C[C@@H]2CCCCN2)C(C)O)CCNC(=O)[C@H](C(C)O)NC(=O)[C@H](CCN)NC(=O)[C@H](CCN)NC1=O (stereo partly drawn) [Example 33, (2S)-piperidin-2-yl-ethanoyl polymyxin B nonapeptide, trifluoroacetate salt] (X5-[Thr(3ξ)][Dab][Dab][Dab][dF]L[Dab][Dab][Thr(3ξ)]; lactam 3-C) | ≤0.06 micrograms/mL | ≤0.06 micrograms/mL | ≤0.06 micrograms/mL | ≤0.06 micrograms/mL | ≤0.06 micrograms/mL | 0.125 micrograms/mL | 2 micrograms/mL | 0.125 micrograms/mL | ≤0.06 micrograms/mL | ≤0.06 micrograms/mL | ≤0.06 micrograms/mL | ≤0.06 micrograms/mL | 0.125 micrograms/mL |  | MIC A. baumannii ATCC BAA-747 (Acinetobacter baumannii; [13]): ≤0.06 micrograms/mL; MIC A. baumannii CCUG57249 (Acinetobacter baumannii; [13]): ≤0.06 micrograms/mL; MIC A. baumannii NCTC 13423 (Acinetobacter baumannii; [13]): ≤0.06 micrograms/mL; MIC A. baumannii NCTC 13424 (Acinetobacter baumannii; [13]): ≤0.06 micrograms/mL; MIC E. coli ATCC25922 (Escherichia coli; [13]): ≤0.06 micrograms/mL; MIC E. coli NCTC9001 (Escherichia coli; [13]): 0.125 micrograms/mL; MIC K. pneumoniae ATCC-BAA-2146 (Klebsiella pneumoniae; [13]): 0.125 micrograms/mL; MIC K. pneumoniae CCUG-59348 (Klebsiella pneumoniae; [13]): 2 micrograms/mL; MIC K. pneumoniae NCTC 13438 (Klebsiella pneumoniae; [13]): 0.125 micrograms/mL; MIC P. aeruginosa ATCC 27853 (Pseudomonas aeruginosa; [13]): ≤0.06 micrograms/mL; MIC P. aeruginosa ATCC CRM-9027 (Pseudomonas aeruginosa; [13]): ≤0.06 micrograms/mL; MIC P. aeruginosa ATCC-47 (Pseudomonas aeruginosa; [13]): ≤0.06 micrograms/mL; MIC P. aeruginosa CCUG 59626 (Pseudomonas aeruginosa; [13]): ≤0.06 micrograms/mL
3 | CC(C)C[C@@H]1NC(=O)[C@@H](Cc2ccccc2)NC(=O)[C@H](CCN)NC(=O)[C@@H](NC(=O)[C@H](CCN)NC(=O)[C@@H](NC(=O)[C@H]2CC[C@@H](N)C2)C(C)O)CCNC(=O)[C@H](C(C)O)NC(=O)[C@H](CCN)NC(=O)[C@H](CCN)NC1=O (stereo partly drawn) [Example 34A, (1S,3R)-3- Aminocyclopentane carbonyl polymyxin B nonapeptide, trifluoroacetate salt] (X8-[Thr(3ξ)][Dab][Dab][Dab][dF]L[Dab][Dab][Thr(3ξ)]; lactam 3-C) | ≤0.06 micrograms/mL | ≤0.06 micrograms/mL | ≤0.06 micrograms/mL | ≤0.06 micrograms/mL |  | 0.125 micrograms/mL | 4 micrograms/mL | 0.25 micrograms/mL | 0.125 micrograms/mL |  | 0.125 micrograms/mL | 0.125 micrograms/mL | 0.125 micrograms/mL |  | MIC E. coli ATCC25922 (Escherichia coli; MIC = total drug concentration, strain ATCC25922, trifluoroacetate salt): ≤0.06 micrograms/mL; MIC P. aeruginosa ATCC CRM-9027 (Pseudomonas aeruginosa; MIC = total drug concentration, strain ATCC CRM-9027, trifluoroacetate salt): 0.125 micrograms/mL
4 | CC(C)C[C@@H]1NC(=O)[C@@H](Cc2ccccc2)NC(=O)[C@H](CCN)NC(=O)[C@@H](NC(=O)[C@H](CCN)NC(=O)[C@@H](NC(=O)C[C@H]2CC[C@@H](N)CC2)C(C)O)CCNC(=O)[C@H](C(C)O)NC(=O)[C@H](CCN)NC(=O)[C@H](CCN)NC1=O (stereo partly drawn) [Example 36, Cis-2-(4-aminocyclohexane) ethanoyl polymyxin B nonapeptide, trifluoroacetate salt] ({Acetyl(cis-4-NH-cyclohexyl)}-[Thr(3ξ)][Dab][Dab][Dab][dF]L[Dab][Dab][Thr(3ξ)]; lactam 3-C) | 0.125 micrograms/mL | 0.25 micrograms/mL | 0.125 micrograms/mL | 0.5 micrograms/mL | 0.25 micrograms/mL | 0.5 micrograms/mL | 4 micrograms/mL | 1 micrograms/mL | 0.25 micrograms/mL | 0.25 micrograms/mL | 0.125 micrograms/mL | 0.25 micrograms/mL | 0.125 micrograms/mL |  | 
5 | CC(C)C[C@@H]1NC(=O)[C@@H](Cc2ccccc2)NC(=O)[C@H](CCN)NC(=O)[C@@H](NC(=O)[C@@H](CO)NC(=O)[C@@H](NC(=O)C2CCCC2N)C(C)O)CCNC(=O)[C@H](C(C)O)NC(=O)[C@H](CCN)NC(=O)[C@H](CCN)NC1=O (stereo partly drawn) [Example 44, [2-Amino-cyclopentane-carbonyl]-L-Thr-D-Ser-polymyxin B hepatapeptide, TFA salt] (X4-[Thr(3ξ)][dS][Dab][Dab][dF]L[Dab][Dab][Thr(3ξ)]; lactam 3-C) | 0.25 micrograms/mL | 0.125 micrograms/mL | 0.125 micrograms/mL | 0.125 micrograms/mL | 0.125 micrograms/mL | 1 micrograms/mL | 4 micrograms/mL |  | 0.5 micrograms/mL | 0.5 micrograms/mL | 1 micrograms/mL | 0.5 micrograms/mL | 0.5 micrograms/mL | 0.125 micrograms/mL | 
6 | CC(C)C[C@@H]1NC(=O)[C@@H](Cc2ccccc2)NC(=O)[C@H](CCN)NC(=O)[C@@H](NC(=O)[C@@H](CO)NC(=O)[C@@H](NC(=O)C(O)C2CCCCC2)C(C)O)CCNC(=O)[C@H](C(C)O)NC(=O)[C@H](CCN)NC(=O)[C@H](CCN)NC1=O (stereo partly drawn) [Example 46, [2-cyclohexyl-2-hydroxyethanoyl]-L-Thr-D-Ser-polymyxin B heptapeptide, TFA salt] (ξHexahydromandeloyl-[Thr(3ξ)][dS][Dab][Dab][dF]L[Dab][Dab][Thr(3ξ)]; lactam 3-C) | ≤0.06 micrograms/mL | 0.125 micrograms/mL | 0.125 micrograms/mL | ≤0.06 micrograms/mL | 0.125 micrograms/mL | 1 micrograms/mL | 2 micrograms/mL |  | 1 micrograms/mL | 1 micrograms/mL | 2 micrograms/mL | 1 micrograms/mL | 0.25 micrograms/mL | 0.125 micrograms/mL | 
